# Measured values as given in patent publication US20250340527A1, “RIPK2 AND NOD INHIBITORS” (Trustees of Tufts College, priority 2022, published 2025).
# Read-outs that look alike come from different tables or passages of the source.
# How the values were obtained:
# [1] = test system: NOD2 cellular signaling in THP1 cells; test: NOD2 signaling assay #2 (THP1 NFkB-SEAP reporter, L18-MDP stimulated); format: cell-based; conditions: Homo sapiens, THP-1, 10 ng/ml L18-MDP
# Procedure: THP1 cells expressing NFkB-SAEP reporter (Invivogen) are seeded into 96 well clear plates at 5×10^4 cells per well in 100 μL of RPM11640 media supplemented with 10% FBS and 1% antibiotic-antimycotic mix. Cells are treated with the inhibitors, diluted in DMSO ([…] per well) for 15 min in 5% CO2 tissue culture incubator at 37° C. After that, cells are stimulated by the addition of 10 ng/ml L18-MDP (Invivogen). Cells are incubated in 5% CO2 tissue culture incubator at 37° C. for 8 h and absorbance, corresponding to the SEAP in the media, is determined in Wallac3V plate reader (Perkin Elmer). Inhibition, %=(1−((sample signal-unstimulated and DMSO treated cells)/(L18-MDP stimulated and DMSO treated cells−unstimulated and DMSO treated cells)))*100. IC50 values are calculated based on a dose range of inhibitor concentrations using non-linear regression in GraphPad Prism software.
# [2] = test system: HEK-Blue cells expressing human NOD2; test: NOD2 signaling assay #1 (HEK-Blue NFkB-SEAP reporter, L18-MDP stimulated); format: cell-based; conditions: 1 ng/ml L18-MDP, read-out: IC50 (nM) HEKBlue
# Procedure: HEK-Blue cells expressing human NOD2 and NFkB-SAEP reporter (Invivogen) are seeded into 96 well clear plates at 7.5×10^3 cells per well in 100 μL of DMEM media supplemented with 10% FBS and 1% antibiotic-antimycotic mix. Cells are allowed to attach for 48 h in 5% CO2 tissue culture incubator at 37° C. On the morning of the experiment, media in the wells is replaced with 100 μL of HEK-Blue detection media (Invivogen). Cells are treated with the inhibitors, diluted in DMSO (0.5 μL per well) for 15 min in 5% CO2 tissue culture incubator at 37° C. After that, cells are stimulated by the addition of 1 ng/ml L18-MDP (Invivogen). Cells are incubated in 5% CO2 tissue culture incubator at 37° C. for 8 h and absorbance, corresponding to the SEAP in the media, is determined in Wallac3V plate reader (Perkin Elmer). Inhibition, %=(1−((sample signal-unstimulated and DMSO treated cells)/(L18-MDP stimulated and DMSO treated cells−unstimulated and DMSO treated cells)))*100. IC50 values are calculated based on a dose range of inhibitor concentrations using non-linear regression in GraphPad Prism software.
# [3] = biological target: Recombinant RIPK2 protein (Homo sapiens, UniProt O43353); test: RIPK2 enzyme assay (ADP-Glo); format: biochemical; conditions: NI: no inhibition observed
# Procedure: Recombinant RIPK2 protein (20 ng per reaction) is diluted in the reaction buffer consisting of 40 mM Tris (pH 7.5); 20 mM MgCl2; 0.1 mg/ml BSA; 50 μM DTT. Diluted protein is added to low volume white 384 well plates (2 μL/well). Inhibitors are diluted in reaction buffer (final 25% DMSO), 1 μL is added to each well and incubated 5 min at room temperature. Reactions are initiated by the addition of 2 μL of 100 μM ATP and 1 mg/ml RS repeat peptide (SignalChem) in the reaction buffer. Plates are sealed with plastic coverslips and incubated at room temperature for 2 h. Reactions are stopped by the addition of 5 μL of ADP-Glo reagent (Promega) and ADP generation reaction is performed for 40 min at room temperature. Luminescence signal is generated by the addition of 10 μL of Kinase detection reagent (Promega) for 30 min at room temperature. Luminescence signals are determined using appropriate luminescence plate-reader (typical integration time 0.3-1 sec). To calculate percent inhibition, average background signal is subtracted from test well and maximal signal wells. Inhibition, %=(1−(test signal/maximal signal))*100. The percent inhibition at a specified concentration is determined or IC50 values are calculated based on a dose range of inhibitor concentrations using non-linear regression in GraphPad Prism software.
# [4] = Pharmacokinetic analysis in mice; format: in vivo, C57BL/6 mice
# From the text: The pharmacokinetic properties of SS-1-64 are summarized in the following table along with a comparator RIPK2/NOD inhibitor CSLP37, N-(5-(2-Amino-5-(4-(piperazin-1-yl)phenyl)pyridin-3-yl)-3-fluoro-2-methoxyphenyl)propane-1-sulfonamide (U.S. Pat. No. 11,135,298 to Cuny et al.).
# [5] = female, C57BL/6, mouse, in vivo, ip, 10 mg/kg
# [6] = single dose 10 mg/kg intraperitoneally, female C57BL/6 mice
# Chain of Recombinant RIPK2 protein (O43353 whole entry, species assumed): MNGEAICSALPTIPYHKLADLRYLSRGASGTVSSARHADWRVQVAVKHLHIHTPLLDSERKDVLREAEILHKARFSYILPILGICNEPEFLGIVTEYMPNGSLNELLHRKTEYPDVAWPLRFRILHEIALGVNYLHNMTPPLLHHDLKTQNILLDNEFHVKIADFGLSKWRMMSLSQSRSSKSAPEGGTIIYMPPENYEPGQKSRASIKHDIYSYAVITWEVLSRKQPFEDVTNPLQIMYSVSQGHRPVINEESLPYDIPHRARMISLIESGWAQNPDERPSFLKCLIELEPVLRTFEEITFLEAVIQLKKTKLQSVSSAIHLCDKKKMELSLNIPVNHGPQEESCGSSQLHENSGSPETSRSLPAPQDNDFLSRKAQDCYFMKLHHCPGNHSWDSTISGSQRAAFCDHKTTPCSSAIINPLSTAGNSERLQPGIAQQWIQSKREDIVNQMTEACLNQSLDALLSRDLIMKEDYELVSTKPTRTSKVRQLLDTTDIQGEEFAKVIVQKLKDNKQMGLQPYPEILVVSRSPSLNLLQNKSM
SMILES,IC50 [1] [nM],IC50 [2] [nM],IC50 [3] [nM],further results
"COc1cc(-c2cc(-c3ccc(C4CCN(C)CC4)cc3)cnc2N)cc(NC(C)=O)c1OC [SS-2-41, N-(5-(2-amino-5-(4-(1-methylpiperidin-4-yl)phenyl)pyridin-3-yl)-2,3-dimethoxyphenyl)acetamide]",0.1,–,–,–
"CCCS(=O)(=O)Nc1cc(-c2cc(Br)cnc2N)cc(F)c1OC [SS-1-5, N-(5-(2-amino-5-bromopyridin-3-yl)-3-fluoro-2-methoxyphenyl)propane-1-sulfonamide]",–,57,–,–
"COc1c(F)cc(-c2cc(-c3ccc(N4CCNCC4)cc3)cnc2N)cc1NS(C)(=O)=O [SS-1-33, N-(5-(2-amino-5-(4-(piperazin-1-yl)phenyl)pyridin-3-yl)-3-fluoro-2-methoxyphenyl)methanesulfonamide]",–,0.17,29,–
"CCCS(=O)(=O)Nc1cc(-c2cc(C#CCN3CCN(C)CC3)cnc2N)cc(F)c1OC [SS-1-66, N-(5-(2-amino-5-(3-(4-methylpiperazin-1-yl)prop-1-yn-1-yl)pyridin-3-yl)-3-fluoro-2-methoxyphenyl)propane-1-sulfonamide]",20,–,–,–
"CCCS(=O)(=O)Nc1cc(-c2cc(-c3ccc(C4CCNCC4)cc3)cnc2N)cc(F)c1OC [SS-1-14, N-(5-(2-amino-5-(4-(piperidin-4-yl)phenyl)pyridin-3-yl)-3-fluoro-2-methoxyphenyl)propane-1-sulfonamide]",–,0.06,11,–
"COc1c(F)cc(-c2cc(-c3ccc(C4CCN(C)CC4)cc3)cnc2N)cc1NS(C)(=O)=O [SS-1-43, N-(5-(2-amino-5-(4-(1-methylpiperidin-4-yl)phenyl)pyridin-3-yl)-3-fluoro-2-methoxyphenyl)methanesulfonamide]",0.1,–,–,–
"CCCS(=O)(=O)Nc1cc(-c2cc(-c3ccc(N4CCNCC4)cc3)cnc2N)cc(F)c1OC [CSLP37, N-(5-(2-Amino-5-(4-(piperazin-1-yl)phenyl)pyridin-3-yl)-3-fluoro-2-methoxyphenyl)propane-1-sulfonamide, reference compound]",–,–,–,"Cl (clearance) [4, 5]: 59.66 ± 15.09 mL/min/kg; Cmax [4, 5]: 550 ± 200 nM; Tmax [4, 5]: 1.2 ± 0.4472 h; V (volume of distribution) [4, 5]: 24.04 ± 6.15 L/kg; t1/2 (plasma elimination half-life) [4, 5]: 4.66 ± 0.24 h; AUC ([4]; mouse, in vivo, ip, 10 mg/kg): 2920 ng·h/mL"
"COc1cc(-c2cc(-c3ccc(C4CCN(C)CC4)cc3)cnc2N)cc(NS(C)(=O)=O)c1OC [SS-1-64, N-(5-(2-amino-5-(4-(1-methylpiperidin-4-yl)phenyl)pyridin-3-yl)-2,3-dimethoxyphenyl)methanesulfonamide]",0.014,–,–,"Cmax ([4]; mouse, in vivo, ip, single dose 10 mg/kg intraperitoneally, 6% Captisol in water, female C57BL/6 mice, read-out: maximum plasma concentration (Cmax)): 1630 ± 1200 nM; Tmax ([4]; mouse, in vivo, ip, single dose 10 mg/kg intraperitoneally, female C57BL/6 mice, read-out: Tmax): 1 h; half-life ([4]; mouse, in vivo, ip, single dose 10 mg/kg intraperitoneally, female C57BL/6 mice, read-out: t1/2 (plasma elimination half-life) (converted)): 7.88 ± 0.28 h; Cl (clearance) [4, 6]: 53.56 ± 5.68 mL/min/kg; V (volume of distribution) [4, 6]: 36.45 ± 2.61 L/kg; Tmax ([4]; single dose 10 mg/kg intraperitoneally, female C57BL/6 mice, plasma): 1 ± 0 h"
"CCCS(=O)(=O)N(C)c1cc(-c2cc(-c3ccc(N4CCNCC4)cc3)cnc2N)cc(F)c1OC [SS-1-39, N-(5-(2-amino-5-(4-(piperazin-1-yl)phenyl)pyridin-3-yl)-3-fluoro-2-methoxyphenyl)-N-methylpropane-1-sulfonamide]",–,1.2,137,–
"COc1c(F)cc(-c2cc(-c3ccc(C4CCN(C)CC4)cc3)cnc2N)cc1N(C)S(C)(=O)=O [SS-1-50, N-(5-(2-amino-5-(4-(1-methylpiperidin-4-yl)phenyl)pyridin-3-yl)-3-fluoro-2-methoxyphenyl)-N-methylmethanesulfonamide]",1.2,–,–,–
"CCCS(=O)(=O)Nc1cc(-c2cc(-c3ccc(N4CCNCC4)cc3)cnc2NC)cc(F)c1OC [SS-1-10, N-(3-fluoro-2-methoxy-5-(2-(methylamino)-5-(4-(piperazin-1-yl)phenyl)pyridin-3-yl)phenyl)propane-1-sulfonamide]",–,16,–,–
"CCCS(=O)(=O)Nc1cc(-c2cc(-c3ccc(C4CCN(C)CC4)cc3)cnc2N)cc(F)c1OC [SS-1-38, N-(5-(2-amino-5-(4-(1-methylpiperidin-4-yl)phenyl)pyridin-3-yl)-3-fluoro-2-methoxyphenyl)propane-1-sulfonamide]",–,0.07,31,–
"CCCS(=O)(=O)Nc1cc(-c2cc(-c3ccc(N4CCN(C)CC4)cc3)cnc2N)cc(F)c1OC [SS-1-18, N-(5-(2-amino-5-(4-(4-methylpiperazin-1-yl)phenyl)pyridin-3-yl)-3-fluoro-2-methoxyphenyl)propane-1-sulfonamide]",–,0.03,10,–
